Measured values taken from patent US8962608B2, “Cycloalkylnitrile pyrazole carboxamides as janus kinase inhibitors” (Merck Sharp & Dohme Corp., priority 2011, dated 2015).

How the values were obtained:
[1] = biological target: JAK1 (recombinant purified GST-tagged catalytic domain) (Homo sapiens (Human), UniProt P23458); experiment: biochemical;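 also: biochemical assay with HTRF read-out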
[2] = biological target: JAK2 (recombinant purified GST-tagged catalytic domain) (Homo sapiens (Human), UniProt O60674); experiment: biochemical;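 also: biochemical JAK kinase assay with HTRF detection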
Chain of JAK2 (recombinant purified GST-tagged catalytic domain) (O60674 849-1124): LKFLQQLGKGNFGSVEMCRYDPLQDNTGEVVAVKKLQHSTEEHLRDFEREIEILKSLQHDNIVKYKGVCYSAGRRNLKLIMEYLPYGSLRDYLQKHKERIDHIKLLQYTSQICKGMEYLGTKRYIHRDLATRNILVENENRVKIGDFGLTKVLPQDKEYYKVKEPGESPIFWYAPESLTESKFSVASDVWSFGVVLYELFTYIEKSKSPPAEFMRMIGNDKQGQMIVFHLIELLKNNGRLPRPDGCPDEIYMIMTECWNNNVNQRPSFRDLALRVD

Chain of JAK1 (recombinant purified GST-tagged catalytic domain) (P23458 875-1153): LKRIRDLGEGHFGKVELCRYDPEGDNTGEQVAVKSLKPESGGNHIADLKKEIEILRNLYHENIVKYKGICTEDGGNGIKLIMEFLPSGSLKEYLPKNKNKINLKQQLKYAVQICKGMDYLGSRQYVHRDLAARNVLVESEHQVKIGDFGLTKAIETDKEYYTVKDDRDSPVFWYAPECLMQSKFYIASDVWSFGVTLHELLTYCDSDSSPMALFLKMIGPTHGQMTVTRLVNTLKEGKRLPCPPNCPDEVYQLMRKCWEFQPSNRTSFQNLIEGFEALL

| IC50 [1] [nM] | IC50 [2] [nM] | Structure (SMILES) |
| --- | --- | --- |
| 0.3 | 3 | N#C[C@H]1C[C@H](O)CC[C@@H]1n1cc(C(N)=O)c(Nc2ccc([C@@H](O)C(F)(F)F)cc2)n1 (single isomer, unassigned) [Example 25-15, 1-[(1S,2S,4R or 1R,2R,4S)-2-cyano-4-hydroxycyclohexyl]-3-({4-[(1R or 1S)-2,2,2-trifluoro-1-hydroxyethyl]phenyl}amino)-1H-pyrazole-4-carboxamide] |
| 0.7 | 16 | CN[C@H]1CC[C@H](n2cc(C(N)=O)c(Nc3ccc(Cl)cc3)n2)[C@@H](C#N)C1 (single isomer, unassigned) [Example 28-40, 3-[(4-chlorophenyl)amino]-1-[(1S,2S,4S or 1R,2R,4R)-2-cyano-4-(methylamino)cyclohexyl]-1H-pyrazole-4-carboxamide] |
| 2 | 13 | N#C[C@H]1CCCC[C@@H]1n1cc(C(N)=O)c(Nc2ccc(C(F)F)nc2)n1 (single isomer, unassigned) [Example 17-59, 1-[(1S,2S or 1R,2R)-2-cyanocyclohexyl]-3-{[6-(difluoromethyl)pyridin-3-yl]amino}-1H-pyrazole-4-carboxamide] |
| 43 | > 500 | N#C[C@H]1C[C@@H](C(=O)N2CC3(COC3)C2)CC[C@@H]1n1cc(C(N)=O)c(Nc2ccc(Cl)cc2)n1 (single isomer, unassigned) [Example 35-37, 3-[(4-chlorophenyl)amino]-1-[(1S,2S,4S or 1R,2R,4R)-2-cyano-4-(2-oxa-6-azaspiro[3.3]hept-6-ylcarbonyl)cyclohexyl]-1H-pyrazole-4-carboxamide] |
| 177 | 375 | N#C[C@H]1C[C@H](N[C@@H](C2CC2)C(F)(F)F)CC[C@@H]1n1cc(C(N)=O)c(Nc2ccc(C(F)(F)F)cc2)n1 (single isomer, unassigned) [Example 28-195, 1-[(1S,2S,4R or 1R,2R,4S)-2-cyano-4-{[(1R)-1-cyclopropyl-2,2,2-trifluoroethyl]amino}cyclo-hexyl]-3-{[4-(trifluoromethyl)phenyl]amino}-1H-pyrazole-4-carboxamide] |
| 2 | 14 | N#C[C@H]1CCCC[C@@H]1n1cc(C(N)=O)c(Nc2cnc3ccc(F)cc3c2)n1 (single isomer, unassigned) [Example 17-48, 1-[(1S,2S or 1R,2R)-2-cyanocyclohexyl]-3-[(6-fluoroquinolin-3-yl)amino]-1H-pyrazole-4-carboxamide] |
| 0.4 | 1 | N#C[C@@H]1CCCC[C@H]1n1cc(C(N)=O)c(Nc2ccc(S(=O)(=O)NCCN3CCOCC3)cc2)n1 (single isomer, unassigned) [Example 17-68, 1-[(1R,2R or 1S,2S)-2-cyanocyclohexyl]-3-({4-[(2-morpholin-4-ylethyl)sulfamoyl]phenyl}amino)-1H-pyrazole-4-carboxamide] |
| 2 | 270 | C[C@H](N[C@@H]1CC[C@H](n2cc(C(N)=O)c(Nc3ccc(C(F)(F)F)cc3)n2)[C@@H](C#N)C1)C1CC1 (single isomer, unassigned) [Example 28-190, 1-[(1S,2S,4R or 1R,2R,4S)-2-cyano-4-{[(1S)-1-cyclopropylethyl]amino}cyclo-hexyl]-3-{[4-(trifluoromethyl)phenyl]amino}-1H-pyrazole-4-carboxamide] |
| 2 | 97 | C[C@H](N[C@H]1CC[C@H](n2cc(C(N)=O)c(Nc3ccc(Cl)c(F)c3)n2)[C@@H](C#N)C1)C1CC1 (single isomer, unassigned) [Example 28-71, 3-[(4-chloro-3-fluorophenyl)amino]-1-[(1S,2S,4S or 1R,2R,4R)-2-cyano-4-{[(1S or 1R)-1-cyclopropylethyl]amino}cyclo-hexyl]-1H-pyrazole-4-carboxamide] |
| 1 | 13 | CN(C)S(=O)(=O)CCNC1CC[C@H](n2cc(C(N)=O)c(Nc3ccc(S(=O)(=O)C(F)(F)F)cc3)n2)[C@@H](C#N)C1 (single isomer, unassigned) [Example 28-154, 1-[(1S,2S or 1R,2R)-2-cyano-4-{[2-(dimethylsulfamoyl)ethyl]a-mino}cyclohexyl]-3-({4-[(trifluoromethyl)sulfonyl]phen-yl}amino)-1H-pyrazole-4-carboxamide] |
| 0.85 | 9 | CCNC(=O)O[C@@H]1CCC(n2cc(C(N)=O)c(Nc3ccc(F)cc3)n2)[C@@H](C#N)C1 (mixture of isomers) [Example 34-7, (1R,3S,4S and 1S,3R,4R)-4-{4-carbamoyl-3-[(4-fluorophenyl)aminol-1H-pyrazol-1-yl}-3-cyanocyclohexyl ethylcarbamate] |

Continued, compound first:

| Structure (SMILES) | IC50 [1] [nM] | IC50 [2] [nM] |
| --- | --- | --- |
| CC(C)(C)NC(=O)[C@@H]1CC[C@@H](n2cc(C(N)=O)c(Nc3ccc(Cl)cc3)n2)[C@H](C#N)C1 (single isomer, unassigned) [Example 35-35, 1-[(1R,2R,4R or 1S,2S,4S)-4-(tert-butylcarbamoyl)-2-cyanocyclohexyl] 3-[(4-chlorophenyl)amino]-1H-pyrazole-4-carboxamide] | 47 | 425 |
| N#C[C@H]1CCCC[C@@H]1n1cc(C(N)=O)c(Nc2cnc3cc(F)ccc3c2)n1 (single isomer, unassigned) [Example 17-41, 1-[(1S,2S or 1R,2R)-2-cyanocyclohexyl]-3-[(7-fluoroquinolin-3-yl)amino]-1H-pyrazole-4-carboxamide] | 2 | 16 |
| N#C[C@@H]1CCCC[C@H]1n1cc(C(N)=O)c(Nc2ccc(S(=O)(=O)Nc3ccccn3)cc2)n1 (single isomer, unassigned) [Example 17-67, 1-[(1R,2R or 1S,2S)-2-cyanocyclohexyl]-3-{[4-(pyridin-2-ylsulfamoyl)phenyl]amino}-1H-pyrazole-4-carboxamide] | 3 | 9 |
| CS(=O)(=O)C1CN(C(=O)[C@@H]2CC[C@@H](n3cc(C(N)=O)c(Nc4ccc(Cl)cc4)n3)[C@H](C#N)C2)C1 (single isomer, unassigned) [Example 35-8, 3-[(4-chlorophenyl)amino]-1-[(1R,2R,4R or 1S,2S,4S)-2-cyano-4-{[3-(methylsulfonyl)azetidin-1-yl]carbonyl}cyclohexyl]-1H-pyrazole-4-carboxamide] | 3 | 19 |
| N#C[C@H]1C[C@@H](NC2COC2)CC[C@@H]1n1cc(C(N)=O)c(Nc2ccc(CC(F)(F)F)cc2)n1 (single isomer, unassigned) [Example 28-79, 1-[(1S,2S,4S or 1R,2R,4R)-2-cyano-4-(oxetan-3-ylamino)cyclohexyl]-3-{[4-(2,2,2-trifluoroethyl)phenyl]amino}-1H-pyrazole-4-carboxamide] | 0.3 | 3 |
| Cn1cc(-c2ccc(Nc3nn(C4CCCC[C@@H]4C#N)cc3C(N)=O)cn2)cn1 (mixture of isomers) [Example 21-2, 1-[(1S,2S and 1R,2R)-2-cyanocyclohexyl]-3-{[6-(1-methyl-1H-pyrazol-4-yl)pyridin-3-yl]amino)-1H-pyrazole-4-carboxamide] | 2 | 15 |
| N#C[C@H]1CCCC[C@@H]1n1cc(C(N)=O)c(Nc2ccc(S(=O)(=O)NC3CCCCC3)cc2)n1 (single isomer, unassigned) [Example 17-82, 1-[(1R,2R or 1S,2S)-2-cyanocyclohexyl]-3-{[4-(cyclohexylsulfamoyl)phenyl]amino}-1H-pyrazole-4-carboxamide] | 0.5 | 1 |
| CN(C1CCC1)[C@H]1CC[C@@H](n2cc(C(N)=O)c(Nc3ccc(C(F)(F)F)cc3)n2)[C@H](C#N)C1 (single isomer, unassigned) [Example 30-8, l-{(1R,2R,4S or 1S,2S,4R)-2-cyano-4-[cyclo-butyl(methyl)amino]cyclohexyl}-3-{[4-(trifluoro-methyl)phenyl]amino}-1H-pyrazole-4-carboxamide] | 6 | 240 |
| COc1cccc(N2CCN(S(=O)(=O)c3ccc(Nc4nn([C@H]5CCCC[C@@H]5C#N)cc4C(N)=O)cc3)CC2)c1 (single isomer, unassigned) [Example 17-97, 1-[(1R,2R or 1S,2S)-2-cyanocyclohexyl]-3-[(4-{[4-(3-methoxyphenyl)piperazin-1-yl]sulfonyl}phenyl)amino]-1H-pyrazole-4-carboxamide] | 9 | 24 |
| N#C[C@@H]1C[C@H](C(=O)NC2CC(F)(F)C2)CC[C@H]1n1cc(C(N)=O)c(Nc2ccc(Cl)cc2)n1 (single isomer, unassigned) [Example 35-18, 3-[(4-chlorophenyl)amino]-1-{(1R,2R,4R or 1S,2S,4S)-2-cyano-4-[(3,3-difluorocyclobutyl)carbamoyl]cyclohexyl}-1H-pyrazole-4-carboxamide] | 13 | 136 |
| CN(CC(F)F)[C@H]1CC[C@H](n2cc(C(N)=O)c(Nc3ccc(S(=O)(=O)C(F)(F)F)cc3)n2)[C@@H](C#N)C1 (single isomer, unassigned) [Example 28-114, 1-{(1S,2S,4S or 1R,2R,4R)-2-cyano-4-[(2,2-difluoroethyl)(methyl)amino]cyclo-hexyl}-3-({4-[(trifluoro-methyl)sulfonyl]phenyl}amino)-1H-pyrazole-4-carboxamide] | 3 | 29 |
| N#C[C@H]1CC(NCC(F)F)CC[C@@H]1n1cc(C(N)=O)c(Nc2ccc(S(=O)(=O)C(F)F)cc2)n1 (single isomer, unassigned) [Example 28-122, 1-{(1S,2S or 1R,2R)-2-cyano-4-[(2,2-difluoroethyl)amino]cyclohexyl}-3-({4-[(difluoro-methyl)sulfonyl]phenyl}amino)-1H-pyrazole-4-carboxamide] | 0.9 | 6 |
| COC(=O)c1cncc(Nc2nn([C@H]3CCCC[C@@H]3C#N)cc2C(N)=O)c1 (single isomer, unassigned) [Example 17-72, methyl 5-({4-carbamoyl-1-[(1R,2R or 1S,2S)-2-cyanocyclohexyl]-1H-pyrazol-3-yl}amino)pyridine-3-carboxylate] | 12 | 89 |
